This note sets out measurements from patent US11524968B2, “Heterocyclic compound as a protein kinase inhibitor” (HK inno.N Corporation, priority 2017, dated 2022).

A value given as a limit tells only on which side of the number the result lay.

One may read the IC50 as the point on the concentration scale where inhibition reaches its midpoint.

JAK1, sequence (P23458 whole entry): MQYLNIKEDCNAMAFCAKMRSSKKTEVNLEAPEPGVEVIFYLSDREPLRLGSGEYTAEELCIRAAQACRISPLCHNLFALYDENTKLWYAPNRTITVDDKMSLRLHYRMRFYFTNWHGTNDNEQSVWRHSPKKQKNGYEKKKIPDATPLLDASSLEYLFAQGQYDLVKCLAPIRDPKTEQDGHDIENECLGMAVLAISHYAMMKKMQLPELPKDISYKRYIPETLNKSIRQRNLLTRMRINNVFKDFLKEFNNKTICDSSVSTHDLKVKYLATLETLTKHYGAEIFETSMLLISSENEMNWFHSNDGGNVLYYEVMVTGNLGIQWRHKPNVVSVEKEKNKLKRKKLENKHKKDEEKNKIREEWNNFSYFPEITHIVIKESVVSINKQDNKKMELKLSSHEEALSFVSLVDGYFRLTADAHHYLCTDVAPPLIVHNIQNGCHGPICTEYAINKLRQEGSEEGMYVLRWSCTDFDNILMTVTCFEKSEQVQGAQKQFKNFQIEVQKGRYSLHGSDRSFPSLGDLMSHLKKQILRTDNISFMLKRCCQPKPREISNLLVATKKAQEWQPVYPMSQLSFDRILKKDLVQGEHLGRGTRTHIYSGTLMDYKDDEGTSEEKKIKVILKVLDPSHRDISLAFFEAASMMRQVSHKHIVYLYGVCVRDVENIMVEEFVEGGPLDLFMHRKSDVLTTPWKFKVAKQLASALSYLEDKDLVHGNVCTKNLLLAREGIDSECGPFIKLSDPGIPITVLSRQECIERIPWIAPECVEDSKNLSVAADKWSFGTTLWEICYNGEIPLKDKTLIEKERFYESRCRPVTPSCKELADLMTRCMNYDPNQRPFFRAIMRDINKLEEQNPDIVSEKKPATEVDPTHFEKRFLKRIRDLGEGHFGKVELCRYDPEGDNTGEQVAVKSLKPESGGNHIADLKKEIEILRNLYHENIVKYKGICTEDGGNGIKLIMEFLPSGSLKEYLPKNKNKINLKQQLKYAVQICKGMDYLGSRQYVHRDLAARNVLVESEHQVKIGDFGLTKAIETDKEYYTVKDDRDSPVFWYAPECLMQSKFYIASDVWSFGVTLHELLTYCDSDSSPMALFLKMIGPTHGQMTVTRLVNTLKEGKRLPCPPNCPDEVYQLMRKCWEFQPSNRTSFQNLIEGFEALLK

The assay has as its target JAK1 (Homo sapiens (Human), UniProt P23458). The assay is described as follows: Analysis of JAK1 activity inhibition ability (ADP-Glo Kinase Assay). The conditions noted are these: JAK1 enzyme, ADP-Glo luminescence, ATP 250 uM, IRS-itide substrate, 30° C. 40 minutes; read-out: IC50. The class given is biochemical. In short, it runs like this: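 ADP-Glo luminescence read-out of ADP production, with IC50 taken as the concentration halving JAK1 activity relative to control. Enzyme was incubated 40 min at 30 °C with compound, IRS-itide (40 ng/mL) and ATP (250 uM), concentrations as prepared in pH 7.5 Tris-HCl/MgCl2/BSA/DTT buffer.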
(ADP-Glo turns the ADP formed in a reaction into a luminescent signal.)
Consider `CCS(=O)(=O)N1CC(CC#N)(N2CC=C(c3cc(NC(=O)C4CC4)nc4[nH]ccc34)C(C)C2)C1` (stereo not drawn) [Example 626, N-(4-(1-(3-(cyanomethyl)-1-(ethylsulfonyl)azetidin-3-yl)-3-methyl-1,2,3,6-tetrahydropyridin-4-yl)-1H-pyrrolo[2,3-b]pyridin-6-yl)cyclopropanecarboxamide], for which the IC50 was below 20 nM.
`O=C(Nc1cc(C2=CCC(NC3CCN(C(=O)C4CCCCC4)CC3)CC2)c2cc[nH]c2n1)C1CC1` (stereo not drawn) [Example 492, N-(4-(4-((1-(cyclohexanecarbonyl)piperidin-4-yl)amino)cyclohex-1-en-1-yl)-1H-pyrrolo[2,3-b]pyridin-6-yl)cyclopropanecarboxamide]: the IC50 was above 200 nM.
The value for `COc1ccc(C(=O)N2CC=C(c3cc(NC(=O)C4CC4)nc4[nH]ccc34)C(C)C2)cc1F` (stereo not drawn) [Example 312, N-(4-(1-(3-fluoro-4-methoxybenzoyl)-3-methyl-1,2,3,6-tetrahydropyridin-4-yl)-1H-pyrrolo[2,3-b]pyridin-6-yl)cyclopropanecarboxamide] was 20 to 200 nM; that for `O=C(NC1CC=C(c2cc(NC(=O)C3CC3)nc3[nH]ccc23)CC1)c1ccccc1` (stereo not drawn) [Example 243, N-(4-(6-(cyclopropanecarboxamido)-1H-pyrrolo[2,3-b]pyridin-4-yl)cyclohex-3-en-1-yl)benzamide] was 20 to 200 nM; that for `C[C@H]1CC(Nc2ccc(-c3cc(NC(=O)C4CC4)nc4[nH]ccc34)cc2)CCN1C(=O)c1cc(F)cc(F)c1` (stereo partly drawn) [Example 502, N-(4-(4-(((2S)-1-(3,5-difluorobenzoyl)-2-methylpiperidin-4-yl)amino)phenyl)-1H-pyrrolo[2,3-b]pyridin-6-yl)cyclopropanecarboxamide] was above 200 nM.
Take `O=C(Nc1ccc(-c2nc(NC(=O)C3CC3)nc3[nH]ccc23)cc1)Nc1ccc(F)c(F)c1` [Example 440, N-(4-(4-(3-(3,4-difluorophenyl)ureido)phenyl)-7H-pyrrolo[2,3-d]pyrimidin-2-yl)cyclopropanecarboxamide]: the IC50 was in the range of 20 to 200 nM.
As to `CC1=C(c2cc(NC(=O)C3CC3)nc3[nH]ccc23)CCN(C(=O)CC#N)C1` [Example 296, N-(4-(1-(2-cyanoacetyl)-5-methyl-1,2,3,6-tetrahydropyridin-4-yl)-1H-pyrrolo[2,3-b]pyridin-6-yl)cyclopropanecarboxamide], the half-maximal inhibitory concentration (IC50) was 20 to 200 nM.
The value for `O=C(Nc1cc(C2=CCN(C(=O)N3CCS(=O)(=O)CC3)CC2)c2cc[nH]c2n1)C1CC1` [Example 445, N-(4-(1-(1,1-dioxidothiomorpholine-4-carbonyl)-1,2,3,6-tetrahydropyridin-4-yl)-1H-pyrrolo[2,3-b]pyridin-6-yl)cyclopropanecarboxamide] was 20 to 200 nM; that for `COc1cccc(C(=O)N2CC=C(c3cc(NC(=O)C4CC4)nc4[nH]ccc34)C(C)C2)c1` (stereo not drawn) [Example 330, N-(4-(1-(3-methoxybenzoyl)-3-methyl-1,2,3,6-tetrahydropyridin-4-yl)-1H-pyrrolo[2,3-b]pyridin-6-yl)cyclopropanecarboxamide] was 20 to 200 nM.
Regarding `N#CC1(CC(=O)N2CCN(c3cc(NC(=O)C4CC4)nc4[nH]ccc34)CC2)CC1` [Example 683, N-(4-(4-(2-(1-cyanocyclopropyl)acetyl)piperazin-1-yl)-1H-pyrrolo[2,3-b]pyridin-6-yl)cyclopropanecarboxamide], the IC50 fell in the range of 20 to 200 nM.
For `CC1CN(C(=O)/C=C/CCBr)CC=C1c1cc(NC(=O)C2CC2)nc2[nH]ccc12` (stereo not drawn) [Example 339, (E)-N-(4-(1-(5-bromopent-2-enoyl)-3-methyl-1,2,3,6-tetrahydropyridin-4-yl)-1H-pyrrolo[2,3-b]pyridin-6-yl)cyclopropanecarboxamide], the concentration for half-maximal inhibition (IC50) is 20 to 200 nM.
Turning to `N#Cc1cc(NS(=O)(=O)c2ccc(F)c(F)c2)ccc1-c1cc(NC(=O)C2CC2)nc2[nH]ccc12` [Example 146, N-(4-(2-cyano-4-((3,4-difluorophenyl)sulfonamido)phenyl)-1H-pyrrolo[2,3-b]pyridin-6-yl)cyclopropanecarboxamide], the IC50 was above 200 nM.
